According to patent US7524512B2, “Composition and method for the prevention and relief of the symptoms of an incompetent or patulous Eustachian tube” (priority 2007, dated 2009):

Key:
[1] = system: patulous Eustachian tube syndrome; assay: Selected case studies: nose drops in patients with patulous / semi-patulous Eustachian tube syndrome; type: in vivo, human
Experimental: In an exemplary first administration protocol, the composition is administered in the form of nose drops, the patient sniffs them through the ipsilateral nostril on the side of the symptomatic ear affected with the disorder. The number of drops administered can be titrated to the needs of the individual patient. The patient can sniff from two to four drops of the solution, and the drops are sniffed back into the nostril so as to deliver the medication to the Eustachian tube opening in the back of the nose. Administration of the drops may be repeated again in four to six hours. As desired, the daily dose maybe increased to 4 drops per administration.
An exemplary nasal drop administration protocol has been developed for the first exemplary embodiment. To achieve normal closure of the lumen, 2-6 drops of the nasal supplement solution are applied to the stoma or opening of the Eustachian tube. It may take two weeks before changes in symptoms become apparent.
Referring to the illustrations in FIGS. 1 and 2 for reference, after the patient been up for a period of time, symptoms begin as the tubal tissues lose fluid and the lumen increases. When the patient feels the symptom of autophony is about to occur, gently blowing the nose to clear any mucous is accomplished.
With the patient 10 lying with head 12 between 45 to 60 degrees above horizontal. This places the Eustachian tube stoma (opening) lower than the nostril 16. Gravity will allow the drops to flow to the back of the nose. Sniffing will draw the drops further info the nasal passage to the Eustachian tube before the semi-permiable membrane lining of the nasal passage can absorb them. Alternatively while sitting in a chair, the head is tilted back at approximately 45 degrees and then tilted toward the affected ear to place it almost below the nose.
For nasal administration, to instill the drops, put the dropper tip one-quarter inch (¼″) into the lower nostril (affected side), closest to the symptomatic ear.
Instill 2-4 drops depending on individual anatomy. Sniffing briskly to draws the drops back approximately three inches (3″) to the location of the tube opening where they will be absorbed. The patient may feel a brief burning or stinging sensation when the drops are administered properly to stimulate the closure of the stoma of the tube. The patient then remains lying down in the administering position for ten (10) seconds.

[2] = system: otitis media / middle ear infection; assay: Case studies: treatment of otitis media, otitis media with effusion and middle ear infection; type: in vivo, human
Experimental: Modification of the composition and methods of treatment for otitis media (OM) and otitis media with effusion (OME) due to inflammatory disease of the middle ear epithelium, structures and specialized membranous tissues is described below. The inflammatory diseases of the middle ear and biofilm are treated herein treated by the following methods. The composition is preferably delivered through the natural opening at the nasopharyngeal orifice of the eustachian tube leading to the middle ear chamber. If this is not possible, a needle or myringotomy incision in made in the tympanic membrane (ear drum) via the external ear canal for the delivery of the embodiment, with or without a device, into the middle ear to chamber. The chamber is irrigated and the biofilm flushed by the exemplary embodiment of the composition delivered as described above.
In otitis media, the solution is topically applied to the Eustachian Tube mucosa in appropriate dosage forms for administration or delivered to the middle ear chamber by delivery through the stoma of the Eustachian Tube in the form of nasal drops, spray, aerosol, rinse, douche or gel. The delivery system may include the modified Politzer technique or catheter insufflation of the middle ear.
If the middle ear chamber is not easily accessible through its natural eustachian tubal stoma, the chamber can be reached directly by surgically penetrating or making an incision in the tympanic membrane of the lateral wall of the middle ear, as in a myringotomy.
In this way, the contaminated middle ear fluid, micro-organisms and biofilm adhesins seen in OME may be degraded and removed by a paracentesis (needle)or myringotomy (scalpel) incision of the tympanic membrane with aspiration of the fluid, under direct visualization. The middle ear fluids and debris are degraded and flushed out by rinsing with the composition of the exemplary embodiment delivered through the acquired opening into the middle ear chamber, in the form of nasal drops, spray, aerosol, rinse, douche, irrigation or gel. The composition, L-Ascorbic acid, in about 4% to 10% wt/vol in an aqueous solution, is employed through a surgically made incision or acquired defect in the tympanic membrane of the middle ear for the optimal characteristics or effects to reestablish Eustachian luminal patency, restore the rheologic properties of the membranous lining, to breakdown and eliminate the contained microorganisms, biofilm or abiotic toxins adhering to the membranes and coating any implanted device in the middle ear, to normalize surface tension and passive closing pressure, facilitating mucociliary clearance through the restored Eustachian tube orifice into the nasopharynx. The products are then swallowed and arrive in the stomach, where the endogenous enzymes and HCL of the stomach inactivate and digest and any residual microorganisms or proteinaceous products.
If a tympanic membrane rupture has occurred, as a complication or from specific trauma, the method of the delivery of the exemplary embodiment is modified for the maximum therapeutic effect of supporting healing of the damaged tympanic membrane. This is accomplished by the application of solid, porous or absorbable implanted devices or sculptured to the anatomical defect of the tympanic membrane and implanted under direct visualization employing a surgical microscope. A non-porous device or tube may be implanted for the delivery of the novel embodiment. The implanted device serves as a conduit through which the embodiment is administered via the external ear canal on a scheduled program for continuous availability of the composition of the exemplary embodiment to support tissue healing by pre-collagen formation and re-epithelization cardinal to middle ear functions.

[3] = Example A: child, 5% in aqueous saline, topical to nasal mucosa, one month after recovery from upper respiratory infection
[4] = Example C: person, 5% wt/vol aqueous solution on porous implanted device, daily, after three months

For O=C1O[C@H]([C@@H](O)CO)C(O)=C1O [L-Ascorbic acid], the adverse side effects ([1]; Example I: person, three drops, 15% wt/vol in distilled water, nose drops) was “no adverse side effects were noted”, the “patulous Eustachian tube syndrome (autophony)” value ([1]; Example I: person, three drops, 15% wt/vol in distilled water, sniffed into ipsilateral nostril, repeated six hours later) was “completely relieved” and the “autophony symptom of an Incompetent Eustachian Tube” value ([1]; Example II: person, unilateral semi-patulous Eustachian tube syndrome, 20% wt/vol aqueous solution, pH 2.0, 2-4 drops per treatment) was “receded completely”. For the same compound, the adverse side effects ([1]; Example II: person, 20% wt/vol aqueous solution, pH 2.0, 2-4 drops) was “no adverse side effects”, the “carcinogenic effect from daily administration of nose drops” value ([1]; Example IV: person after nasopharyngeal carcinoma resection, 15% wt/vol aqueous solution, pH 2.1, daily over several years) was “no carcinogenic effect” and the “cytology studies of the right Eustachian tube area” value ([1]; Example IV: person, 15% wt/vol aqueous solution, pH 2.1, daily for several years) was “free of cancer”. For the same compound, the “relief of PET symptoms” value ([1]; inventor (JD) as subject, two drops, 15% wt/vol. in distilled water, as needed, after one month) was “complete symptomatic relief”, the middle ear pressure ([2]; Example A: child, bilateral negative middle ear pressure, 5% in aqueous saline solution, nasal spray, over the next month) was “within normal limits” and the “Eustachian Tube function” value [2, 3] was “normal”. The “middle ear infection or fluid on examination” value [2, 3] was “no evidence of any middle ear infection or fluid”, the signs of infection ([2]; Example B: person, Corynebacterium, 5% wt/vol in physiologic saline, two times a day) was “no further signs of infection” and the middle ear drainage ([2]; Example B: person, right middle ear infection (Corynebacterium), 5% wt/vol in physiologic saline, trans canal through the perforation, two times a day, in five days) was “completely eliminated”. For the same compound, the “mastoid / middle ear drainage” value ([2]; Example C: person, chronic right mastoiditis, total tympanic membrane perforation, 5% wt/vol aqueous solution on porous implanted device, daily, after three months) was “ceased”, the infection [2, 4] was “free of infection” and the right eardrum perforation [2, 4] was “healed closed”. For the same compound, the hearing ([2]; Example III: child, chronic otitis media with effusion, 4% wt/vol in physiologic saline, metered nasal spray after politzerization, after two weeks) was “hearing was restored” and the adverse side effects ([2]; Example III: child, 4% wt/vol in physiologic saline, metered nasal spray) was “no adverse side effects”.
